Data reported in patent publication US11214594B2, “Antimicrobial peptide having synergistic antibacterial effect with antibiotics on multidrug resistant bacteria, and use thereof” (priority 2016, dated 2022).
Values after ≈ are worked out from the molar mass of the structure shown. Like-named read-outs stand apart in the source and are kept apart here. Where a SMILES comes first, the peptide text is derived from it.

Assays:
[1] = tested on: E. coli; test: microbe, parasite or virus in culture; format: cell-based, Escherichia coli
How it was run: (§1)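 MIC read-out = lowest peptide level with no bacterial proliferation. Strains diluted in MH medium to 2×10^6 CFU; peptide twofold serial dilutions in MH added 1:1 in microtiter wells.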

[2] = tested on: MDREC 1229; test: microbe, parasite or virus in culture; format: cell-based, Escherichia coli
How it was run: as §1

[3] = tested on: P. aeruginosa; test: microbe, parasite or virus in culture; format: cell-based, Pseudomonas aeruginosa
How it was run: as §1

[4] = tested on: MDRST 8009; format: cell-based, Salmonella typhimurium; settings: agent alone
How it was run: as §1

[5] = tested on: B. subtilis; test: microbe, parasite or virus in culture; format: cell-based, Bacillus subtilis
How it was run: as §1

[6] = tested on: S. epidermidis; test: microbe, parasite or virus in culture; format: cell-based, Staphylococcus epidermidis
How it was run: as §1

[7] = tested on: E. coli; test: MIC of antibiotic during combined treatment with antimicrobial peptide; format: cell-based, Escherichia coli; settings: for Antibiotic MIC, Erythromycin / Antibiotic MIC, Linezolid / Antibiotic MIC, Vancomycin: E. coli
How it was run: (§2)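 Using MH broth, we determined combination MICs by titrating the antibiotic into wells and then repeating under the reverse dilution scheme.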

[8] = tested on: MDREC 1229; test: as above; format: cell-based, Escherichia coli
How it was run: (§3)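 Broth microdilution in MH medium; strains were diluted to 2×10^6 CFU per ml before plating. Peptide was serially diluted stepwise at 2:1 starting from its MIC, and MH-diluted antibiotic was then added to determine MIC. The reversed arrangement was also tested.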

[9] = tested on: A. baumannii; test: as above; format: cell-based, Acinetobacter baumannii; settings: for Antibiotic MIC, Erythromycin / Antibiotic MIC, Linezolid / Antibiotic MIC, Vancomycin: A. baumannii
How it was run: as §2

[10] = tested on: E. coli; format: cell-based, Escherichia coli; settings: E. coli
How it was run: as §3

[11] = tested on: MDREC 1229; format: cell-based, Escherichia coli
How it was run: as §3

[12] = tested on: A. baumannii; test: MIC of antimicrobial peptide during combined treatment with antibiotic; format: cell-based, Acinetobacter baumannii
How it was run: as §3

[13] = tested on: MDRAB 12035; test: as above; format: cell-based, Acinetobacter baumannii
How it was run: as §3

[14] = peptide treatment concentration 1 μg/ml
[15] = peptide treatment concentration 2 μg/ml
[16] = peptide treatment concentration 4 μg/ml
[17] = peptide treatment concentration 6 μg/ml
[18] = peptide treatment concentration 8 μg/ml
[19] = peptide treatment concentration 16 μg/ml
[20] = peptide treatment concentration 32 μg/ml
[21] = peptide treatment concentration 64 μg/ml
[22] = combined with peptide at 1 μg/ml
[23] = combined with peptide at 2 μg/ml
[24] = combined with peptide at 4 μg/ml
[25] = combined with peptide at 6 μg/ml
[26] = combined with peptide at 8 μg/ml
[27] = combined with peptide at 16 μg/ml
[28] = combined with peptide at 32 μg/ml
[29] = combined with peptide at 64 μg/ml
[30] = with Erythromycin […] (Conc./MIC 1)
[31] = erythromycin 4 μg/ml (Conc./MIC 1/8)
[32] = erythromycin 8 μg/ml (Conc./MIC 1/4)
[33] = erythromycin 16 μg/ml (Conc./MIC 1/2)
[34] = erythromycin 32 μg/ml (Conc./MIC 1)
[35] = vancomycin 512 μg/ml (Conc./MIC 1/2)
[36] = vancomycin 1024 μg/ml (Conc./MIC 1)

CC[C@H](C)[C@H](NC(=O)[C@H](CCCCN)NC(=O)[C@H](Cc1c[nH]c2ccccc12)NC(=O)[C@@H](N)CCCNC(=N)N)C(=O)N[C@@H](Cc1ccccc1)C(=O)N[C@@H](CCCCN)C(=O)N[C@@H](CCCCN)C(=O)N[C@H](C(=O)N1CCC[C@H]1C(=O)N[C@@H](CCCCN)C(=O)N[C@@H](CC(C)C)C(=O)N[C@@H](CC(C)C)C(=O)N[C@@H](Cc1c[nH]cn1)C(=O)N[C@@H](CO)C(=O)N[C@@H](Cc1ccccc1)C(=O)N[C@@H](CCCCN)C(=O)N[C@@H](CCCCN)C(=O)N[C@@H](Cc1ccccc1)C(N)=O)[C@@H](C)CC [PapMA-7, RWK IFK KIP KLL HSF KKF-NH2] (H-RWKIFKKIPKLLHSFKKF-NH2; N-terminus assumed)
Minimal inhibitory concentration MIC ([1]; 16 h): 32 µg/mL (≈ 13.7 µM)
Antibacterial activity relative to PapMA-1 ([1]; E. coli): at least twice as high
Minimal inhibitory concentration MIC [2]: 64 µg/mL (≈ 27.3 µM)
Minimal inhibitory concentration MIC [3]: 16 µg/mL (≈ 6.83 µM)
Antibacterial activity (in words) ([3]; P. aeruginosa and S. typhimurium): significantly increased
Minimal inhibitory concentration MIC [4]: 32 µg/mL (≈ 13.7 µM)
Minimal inhibitory concentration MIC [5]: >128 µg/mL
Minimal inhibitory concentration MIC [6]: >128 µg/mL
Synergistic effect of antibacterial activity with existing antibiotics compared with PapMA-1 ([7]; E. coli and MDREC1229): higher level than the PapMA-1 peptide
Antibiotic MIC, Erythromycin ([7]; erythromycin combined with peptide at 1 μg/ml): 64 µg/mL
Antibiotic MIC, Erythromycin ([7]; erythromycin combined with peptide at 2 μg/ml): 32 µg/mL
Antibiotic MIC, Erythromycin ([7]; erythromycin combined with peptide at 4 μg/ml): 4 µg/mL
Antibiotic MIC, Erythromycin ([7]; erythromycin combined with peptide at 6 μg/ml): 2 µg/mL
Antibiotic MIC, Erythromycin ([7]; erythromycin combined with peptide at 8 μg/ml): 0.25 µg/mL
Antibiotic MIC, Erythromycin ([7]; erythromycin combined with peptide at 16 μg/ml): 0.125 µg/mL
Antibiotic MIC, Erythromycin ([7]; erythromycin combined with peptide at 32 μg/ml): 0 µg/mL
Antibiotic MIC, Erythromycin ([7]; erythromycin combined with peptide at 64 μg/ml): 0 µg/mL
Antibiotic MIC, Linezolid ([7]; linezolid combined with peptide at 1 μg/ml): >128 µg/mL
Antibiotic MIC, Linezolid ([7]; linezolid combined with peptide at 2 μg/ml): 128 µg/mL
Antibiotic MIC, Linezolid ([7]; linezolid combined with peptide at 4 μg/ml): 8 µg/mL
Antibiotic MIC, Linezolid ([7]; linezolid combined with peptide at 6 μg/ml): 4 µg/mL
Antibiotic MIC, Linezolid ([7]; linezolid combined with peptide at 8 μg/ml): 4 µg/mL
Antibiotic MIC, Linezolid ([7]; linezolid combined with peptide at 16 μg/ml): 1 µg/mL
Antibiotic MIC, Linezolid ([7]; linezolid combined with peptide at 32 μg/ml): 0 µg/mL
Antibiotic MIC, Linezolid ([7]; linezolid combined with peptide at 64 μg/ml): 0 µg/mL
Antibiotic MIC, Vancomycin ([7]; vancomycin combined with peptide at 1 μg/ml): >128 µg/mL
Antibiotic MIC, Vancomycin ([7]; vancomycin combined with peptide at 2 μg/ml): 128 µg/mL
Antibiotic MIC, Vancomycin ([7]; vancomycin combined with peptide at 4 μg/ml): 32 µg/mL
Antibiotic MIC, Vancomycin ([7]; vancomycin combined with peptide at 6 μg/ml): 8 µg/mL
Antibiotic MIC, Vancomycin ([7]; vancomycin combined with peptide at 8 μg/ml): 4 µg/mL
Antibiotic MIC, Vancomycin ([7]; vancomycin combined with peptide at 16 μg/ml): 1 µg/mL
Antibiotic MIC, Vancomycin ([7]; vancomycin combined with peptide at 32 μg/ml): 0 µg/mL
Antibiotic MIC, Vancomycin ([7]; vancomycin combined with peptide at 64 μg/ml): 0 µg/mL
Antibiotic MIC, Erythromycin [8, 14]: 64 µg/mL
Antibiotic MIC, Linezolid [8, 14]: 128 µg/mL
Antibiotic MIC, Vancomycin [8, 14]: >128 µg/mL
Antibiotic MIC, Erythromycin [8, 15]: 16 µg/mL
Antibiotic MIC, Linezolid [8, 15]: 32 µg/mL
Antibiotic MIC, Vancomycin [8, 15]: >128 µg/mL
Antibiotic MIC, Erythromycin [8, 16]: 4 µg/mL
Antibiotic MIC, Linezolid [8, 16]: 16 µg/mL
Antibiotic MIC, Vancomycin [8, 16]: 128 µg/mL
Antibiotic MIC, Erythromycin [8, 17]: 2 µg/mL
Antibiotic MIC, Linezolid [8, 17]: 8 µg/mL
Antibiotic MIC, Vancomycin [8, 17]: 16 µg/mL
Antibiotic MIC, Erythromycin [8, 18]: 1 µg/mL
Antibiotic MIC, Linezolid [8, 18]: 4 µg/mL
Antibiotic MIC, Vancomycin [8, 18]: 8 µg/mL
Antibiotic MIC, Erythromycin [8, 19]: 0.125 µg/mL
Antibiotic MIC, Linezolid [8, 19]: 2 µg/mL
Antibiotic MIC, Vancomycin [8, 19]: 2 µg/mL
Antibiotic MIC, Erythromycin [8, 20]: 0.0625 µg/mL
Antibiotic MIC, Linezolid [8, 20]: 1 µg/mL
Antibiotic MIC, Vancomycin [8, 20]: 1 µg/mL
Antibiotic MIC, Erythromycin [8, 21]: 0 µg/mL
Antibiotic MIC, Linezolid [8, 21]: 0 µg/mL
Antibiotic MIC, Vancomycin [8, 21]: 0 µg/mL
Synergistic effect of antibacterial activity with existing antibiotics compared with PapMA-1 ([9]; A. baumannii and MDRAB 12035): higher level than the PapMA-1 peptide
Antibiotic MIC, Erythromycin [9, 22]: 16 µg/mL
Antibiotic MIC, Linezolid [9, 22]: 128 µg/mL
Antibiotic MIC, Vancomycin [9, 22]: >128 µg/mL
Antibiotic MIC, Erythromycin [9, 23]: 8 µg/mL
Antibiotic MIC, Linezolid [9, 23]: 32 µg/mL
Antibiotic MIC, Vancomycin [9, 23]: 64 µg/mL
Antibiotic MIC, Erythromycin [9, 24]: 2 µg/mL
Antibiotic MIC, Linezolid [9, 24]: 8 µg/mL
Antibiotic MIC, Vancomycin [9, 24]: 16 µg/mL
Antibiotic MIC, Erythromycin [9, 25]: 1 µg/mL
Antibiotic MIC, Linezolid [9, 25]: 2 µg/mL
Antibiotic MIC, Vancomycin [9, 25]: 4 µg/mL
Antibiotic MIC, Erythromycin [9, 26]: 0.125 µg/mL
Antibiotic MIC, Linezolid [9, 26]: 1 µg/mL
Antibiotic MIC, Vancomycin [9, 26]: 2 µg/mL
Antibiotic MIC, Erythromycin [9, 27]: 0 µg/mL
Antibiotic MIC, Linezolid [9, 27]: 0 µg/mL
Antibiotic MIC, Vancomycin [9, 27]: 0 µg/mL
Antibiotic MIC, Erythromycin [9, 28]: 0 µg/mL
Antibiotic MIC, Linezolid [9, 28]: 0 µg/mL
Antibiotic MIC, Vancomycin [9, 28]: 0 µg/mL
Antibiotic MIC, Erythromycin [9, 29]: 0 µg/mL
Antibiotic MIC, Linezolid [9, 29]: 0 µg/mL
Antibiotic MIC, Vancomycin [9, 29]: 0 µg/mL
Peptide MIC [10, 30]: 0 µg/mL
Peptide MIC ([10]; with Linezolid […] (Conc./MIC 1)): 0 µg/mL
Peptide MIC ([10]; with Vancomycin 1024 μg/ml (Conc./MIC 1)): 0 µg/mL
Peptide MIC [11, 30]: 0 µg/mL
Peptide MIC ([11]; with Linezolid 512 μg/ml (Conc./MIC 1)): 0 µg/mL
Peptide MIC during treatment with antibiotic [12, 31]: 2 µg/mL
Peptide MIC during treatment with antibiotic [12, 32]: 2 µg/mL
Peptide MIC during treatment with antibiotic [12, 33]: 1 µg/mL
Peptide MIC during treatment with antibiotic [12, 34]: 0 µg/mL
Peptide MIC during treatment with antibiotic ([12]; linezolid 32 μg/ml (Conc./MIC 1/8)): 2 µg/mL
Peptide MIC during treatment with antibiotic ([12]; linezolid 64 μg/ml (Conc./MIC 1/4)): 2 µg/mL
Peptide MIC during treatment with antibiotic ([12]; linezolid […] (Conc./MIC 1)): 0 µg/mL
Peptide MIC during treatment with antibiotic ([12]; linezolid […] (Conc./MIC 1/2)): 1 µg/mL
Peptide MIC during treatment with antibiotic [12, 35]: 0.25 µg/mL
Peptide MIC during treatment with antibiotic [12, 36]: 0 µg/mL
Peptide MIC during treatment with antibiotic ([12]; vancomycin […] (Conc./MIC 1/4)): 0.25 µg/mL
Peptide MIC during treatment with antibiotic ([12]; vancomycin […] (Conc./MIC 1/8)): 2 µg/mL
Peptide MIC during treatment with erythromycin [13, 31]: 2 µg/mL
Peptide MIC during treatment with erythromycin [13, 32]: 1 µg/mL
Peptide MIC during treatment with erythromycin [13, 33]: 1 µg/mL
Peptide MIC during treatment with erythromycin [13, 34]: 0 µg/mL
Peptide MIC during treatment with linezolid ([13]; linezolid 64 μg/ml (Conc./MIC 1/8)): 1 µg/mL
Peptide MIC during treatment with linezolid ([13]; linezolid 512 μg/ml (Conc./MIC 1)): 0 µg/mL
Peptide MIC during treatment with linezolid ([13]; linezolid […] (Conc./MIC 1/2)): 1 µg/mL
Peptide MIC during treatment with linezolid ([13]; linezolid […] (Conc./MIC 1/4)): 1 µg/mL
Peptide MIC during treatment with vancomycin [13, 35]: 0.5 µg/mL
Peptide MIC during treatment with vancomycin [13, 36]: 0.25 µg/mL
Peptide MIC during treatment with vancomycin ([13]; vancomycin […] (Conc./MIC 1/4)): 1 µg/mL
Peptide MIC during treatment with vancomycin ([13]; vancomycin […] (Conc./MIC 1/8)): 1 µg/mL
